The structures appear in SMILES notation. Several values for one entry are separate records, joined by “and”; a condition that tells them apart may be missing. Equal entries are not always repeated.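 Each compound was tested at five concentrations against cells in 96-well plates for 48 hours. GI50: concentration for 50% inhibition of growth. TGI: total growth inhibition.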

Some test systems named below: EKVX NSCLC; HCC-2998 colon; HOP-92 NSCLC; K-562 leukemia; MALME-3M melanoma; MDA-MB-435; OVCAR-4 ovarian; OVCAR-5 ovarian; OVCAR-8 ovarian; SF-539 CNS.
Common to all, as to experiment: growth of human tumour cells (NCI), 48 h

In the case of `N[C@H](CCC(=O)N[C@@H](Cc1c[nH]c2ccccc12)C(=O)O)C(=O)O`, the GI50 in the experiment with EKVX NSCLC, in the experiment with HCC-2998 colon, with HOP-92 NSCLC, in the experiment with K-562 leukemia, with MALME-3M melanoma and in the experiment with MDA-MB-435 was > 100 µM in each case. The GI50 with OVCAR-4 ovarian, in the experiment on OVCAR-5 ovarian, in the experiment with OVCAR-8 ovarian and with SF-539 CNS was > 100 µM in each case. Further, the TGI in the experiment with EKVX NSCLC, in the experiment on HCC-2998 colon, in the experiment with HOP-92 NSCLC, in the experiment on K-562 leukemia, with MALME-3M melanoma and in the experiment on MDA-MB-435 was > 100 µM throughout. Moreover, the TGI in the experiment on OVCAR-4 ovarian, in the experiment on OVCAR-5 ovarian, with OVCAR-8 ovarian and with SF-539 CNS was > 100 µM each time.
As for `O=C(/C=C/c1ccccc1)c1ccccc1`, the TGI in the experiment with EKVX NSCLC is > 10 µM; in the experiment with HCC-2998 colon, > 10 µM; in the experiment with HOP-92 NSCLC it was > 10 µM; with K-562 leukemia, > 7.51 µM; in the experiment on MALME-3M melanoma, > 10 µM; in the experiment on MDA-MB-435, > 10 µM. In addition, the TGI with OVCAR-4 ovarian, with OVCAR-5 ovarian, in the experiment on OVCAR-8 ovarian and in the experiment with SF-539 CNS was > 10 µM in each case.
With `NCCNCC1CCNCC1`, the TGI in the experiment with EKVX NSCLC, with HCC-2998 colon, with HOP-92 NSCLC, in the experiment with K-562 leukemia, in the experiment on MALME-3M melanoma and in the experiment on MDA-MB-435 was > 100 µM throughout. For the same compound, the TGI in the experiment with OVCAR-4 ovarian, with OVCAR-5 ovarian, in the experiment on OVCAR-8 ovarian and in the experiment with SF-539 CNS was > 100 µM each time.
Take `O=C(Nc1cc(Nc2ncccc2-c2ncnc3nc[nH]c23)ccc1F)c1cc(C(F)(F)F)cc(C(F)(F)F)c1`: the GI50 in the experiment on EKVX NSCLC was 4.1 µM; in the experiment on HCC-2998 colon, 1.24 µM; in the experiment on HOP-92 NSCLC, 0.891 µM; with K-562 leukemia it was 0.4 µM; in the experiment on MALME-3M melanoma it was 0.152 µM; with MDA-MB-435, 0.996 µM. Moreover, the GI50 is 1.57 µM in the experiment with OVCAR-4 ovarian, 0.868 µM in the experiment with OVCAR-5 ovarian, 3.67 µM in the experiment with OVCAR-8 ovarian and 1.3 µM with SF-539 CNS. Moreover, the TGI is > 10 µM in the experiment on EKVX NSCLC; 2.74 µM with HCC-2998 colon; 3.92 µM with HOP-92 NSCLC; > 10 µM in the experiment on K-562 leukemia; 0.542 µM in the experiment on MALME-3M melanoma; > 10 µM in the experiment with MDA-MB-435. Further, the TGI is 4.34 µM with OVCAR-4 ovarian, 2.98 µM in the experiment with OVCAR-5 ovarian, > 10 µM in the experiment on OVCAR-8 ovarian and 3.04 µM in the experiment with SF-539 CNS.
As for `OC(c1cc(-c2ccc(C(F)(F)F)cc2)nc(C(F)(F)F)c1)C1CCCCN1` (stereo not drawn), the GI50 was 1.96 µM and 4.22 µM in the experiment with EKVX NSCLC; 0.53 µM with HCC-2998 colon; 1.06 µM and 2.38 µM in the experiment with HOP-92 NSCLC; 1.2 µM and 1.91 µM in the experiment with K-562 leukemia; 1.67 µM in the experiment with MDA-MB-435; 1.53 µM and 2.71 µM in the experiment on OVCAR-5 ovarian. The GI50 with OVCAR-8 ovarian was 1.87 µM and 2.2 µM; with SF-539 CNS, 1.72 µM and 2.39 µM. The TGI was 4.3 µM and 11.6 µM with EKVX NSCLC; 1.76 µM and 3.07 µM in the experiment with HCC-2998 colon; 2.47 µM and 9.39 µM with HOP-92 NSCLC; 2.94 µM and 4.06 µM in the experiment on K-562 leukemia; 3.28 µM and 3.38 µM in the experiment with MALME-3M melanoma; 3.05 µM and 3.42 µM in the experiment with MDA-MB-435. Moreover, the TGI in the experiment with OVCAR-4 ovarian is 5.6 µM; in the experiment on OVCAR-5 ovarian it was 2.87 µM and 7.52 µM; in the experiment on OVCAR-8 ovarian it was 3.62 µM and 4.59 µM; in the experiment on SF-539 CNS, 3.12 µM and 4.75 µM.
On to `CC(C)[C@H](O)C(=O)N[C@@H](C)C(=O)N[C@@H]1C(=O)N(C)CCc2ccccc21`, for which the GI50 in the experiment with EKVX NSCLC, with HCC-2998 colon, with HOP-92 NSCLC, in the experiment on K-562 leukemia, with MALME-3M melanoma and with MDA-MB-435 was > 100 µM throughout. The GI50 in the experiment with OVCAR-4 ovarian, with OVCAR-5 ovarian, in the experiment on OVCAR-8 ovarian and in the experiment with SF-539 CNS was > 100 µM in each case. Moreover, the TGI in the experiment on EKVX NSCLC, in the experiment with HCC-2998 colon, in the experiment with HOP-92 NSCLC, in the experiment on K-562 leukemia, in the experiment with MALME-3M melanoma and in the experiment on MDA-MB-435 was > 100 µM in each case. The TGI with OVCAR-4 ovarian, with OVCAR-5 ovarian, in the experiment with OVCAR-8 ovarian and with SF-539 CNS was > 100 µM throughout.
On to `Nc1ccccc1O.O.O=C(O)C1[O][Sb][O]C1C(=O)O` (stereo not drawn), for which the GI50 is 18.1 µM with EKVX NSCLC; 17.9 µM with HCC-2998 colon; 21 µM in the experiment on HOP-92 NSCLC; 3.77 µM in the experiment with K-562 leukemia; 1.65 µM with MALME-3M melanoma; 16.5 µM in the experiment with MDA-MB-435. The GI50 in the experiment on OVCAR-4 ovarian was 16 µM; in the experiment on OVCAR-5 ovarian it was 18.4 µM; in the experiment with OVCAR-8 ovarian it was 14.9 µM; in the experiment with SF-539 CNS it was 17.9 µM. Further, the TGI was 38.9 µM with EKVX NSCLC; 47.7 µM with HCC-2998 colon; 40.2 µM with HOP-92 NSCLC; > 36.1 µM in the experiment with K-562 leukemia; 4.97 µM with MALME-3M melanoma; 30.8 µM in the experiment on MDA-MB-435. For the same compound, the TGI in the experiment on OVCAR-4 ovarian amounted to 30.6 µM; in the experiment with OVCAR-5 ovarian, 38.5 µM; in the experiment with OVCAR-8 ovarian, 32.9 µM; in the experiment with SF-539 CNS it was 37.4 µM.

The values are drawn from PubChem BioAssay (NCI).
